How the values were obtained:
[1] = test system: histone H3 acetylation (lysine 9+14) in HeLa cervical carcinoma cells; assay: Cellular histone H3 acetylation assay; format: cell-based; conditions: Homo sapiens, 24 h incubation with compound, read-out: EC50 (histone H3 acetylating cellular potency)
From the text: To assess the cellular efficacy of an histone deactylase inhibitor in vitro, an assay is set up in black clear-bottom 96-well plates and optimized for use on the Cellomics “ArrayScan II” platform for a quantitative calculation of histone acetylation. The protocol uses a polyclonal rabbit antibody, specifically binding to acetylated lysine 9+14 of human histone H3 on fixed cells with an Alexa Fluor 488 labeled goat ant rabbit-IgG used for counterstaining (modified from Braunger et al. MCR annual conference 2003, Abstract 4556).
5×10^3 HeLa cervical carcinoma cells/well (ATCC CCL-2) in 200 μl Dulbecco's modified Eagle's medium (DMEM) containing 10% fetal calf serum are seeded at day 1 in Packard view plates and incubated for 24 h under standard cell culture conditions. On day 2, 2 μl test compound (100× final concentration) is added and incubation continued for further 24 h. On day 3, the culture medium is discarded and attached cells fixed for 15 min at room temperature by addition of 100 μl fixation buffer (3.7% v:v formaldehyde in phosphate buffered saline/PBS). After discarding the fixation buffer and one wash with PBS, cells are permeabilized at room temperature by addition of 100 μl/well permeabilization buffer (30.8 mM NaCl, 0.54 mM Na2HPO4, 0.31 mM KH2PO4, 5% v:v Triton X-100) for 15 min at room temperature. After discarding the permeabilization buffer and washing twice with 100 μl/well blocking solution (PBS with 0.05% v:v Tween 20 and 5% w:v milk powder) at room temperature, the 1st antibody (anti-K9+14 histone H3 antibody, Calbiochem No. 382158) in blocking solution (50 μl/well) is added. After incubation for 1 h at 37° C., the wells are washed twice at room temperature with 100 μl/well blocking solution before addition of the 2nd antibody (goat-anti-rabbit Alexa Fluor 488; MoBiTec No. A-11008) in blocking solution (50 μl/well). After further incubation for 1 h at 37° C., wells are washed twice with 100 μl/well blocking solution room temperature. Finally, 100 d/well PBS are added and image analysis performed on the Cellomics “ArrayScan II” platform. For calculation of EC50 values, the nuclear fluorescence in cells treated with and without a reference HDAC inhibitor (eg NVP-LBH-589) are taken as a positive and negative control. For EC50 determination, the percentage of positive cells is determined and EC50 calculation done from concentration-effect curves by means of non-linear regression.

**Q.** Which melting point does the source give for `O=C(/C=C/c1ccn(S(=O)(=O)c2cc(-c3ccccc3)ccc2CCCN2CCOCC2)c1)NO` [Compound 45, (E)-N-Hydroxy-3-{1-[4-(3-morpholin-4-yl-propyl)-biphenyl-3-sulfonyl]-1H-pyrrol-3-yl}-acrylamide] here?
**A.** 215 to 217 °C

**Q.** And the EC50 [1]?
**A.** 27 to 4400 nM

— patent publication US7666868B2, “N-sulphonylpyrroles and their use as histone deacetylase inhibitors” (4SC AG, priority 2005, dated 2010)
